Where two headings read alike, the source gives them in different places.
Target: T1, human CRF receptors (Homo sapiens, UniProt P34998)
T1 construct: expressed in transfected cells
T1 sequence (P34998 24-415): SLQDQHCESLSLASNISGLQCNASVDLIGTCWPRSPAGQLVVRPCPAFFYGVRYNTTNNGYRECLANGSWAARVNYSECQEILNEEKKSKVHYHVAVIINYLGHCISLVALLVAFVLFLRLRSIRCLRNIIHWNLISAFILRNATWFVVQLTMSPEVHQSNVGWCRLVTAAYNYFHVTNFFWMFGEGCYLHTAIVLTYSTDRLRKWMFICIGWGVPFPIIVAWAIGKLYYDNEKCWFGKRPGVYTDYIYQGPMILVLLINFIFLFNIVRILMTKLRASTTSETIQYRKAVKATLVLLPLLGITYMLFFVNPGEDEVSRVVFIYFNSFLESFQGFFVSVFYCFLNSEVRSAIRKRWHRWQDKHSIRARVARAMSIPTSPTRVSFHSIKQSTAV
Experiment: CRF receptor binding activity (radioligand displacement, Example 25)
Source text: The effectiveness of a compound as a CRF receptor antagonist may be determined by various assay methods. […] CRF receptor affinity may be determined by binding studies that measure the ability of a compound to inhibit the binding of a radiolabeled CRF (e.g., [^125I]tyrosine-CFR) to its receptor (e.g., receptors prepared from rat cerebral cortex membranes). The radioligand binding assay described by DeSouza et al. (supra, 1987) provides an assay for determining a compound's affinity for the CRF receptor.
[formula] where L=radioligand and KD=affinity of radioligand for receptor (Cheng and Prusoff, Biochem. Pharmacol. 22:3099, 1973).
By utilizing radiolabeled CRF ligands, the assay may be used to evaluate the binding activity of the compounds of the present invention with any CRF receptor subtype.
Briefly, the binding assay involves the displacement of a radiolabeled CRF ligand from the CRF receptor. More specifically, the binding assay is performed in 96-well assay plates using 1-10 μg cell membranes from cells stably transfected with human CRF receptors. […] The mixture is incubated for 2 hours at 22° C. followed by separation of the bound and free radioligand by rapid filtration over glass fiber filters. Following three washes, the filters are dried and radioactivity (Auger electrons from ^125I) is counted using a scintillation counter. All radioligand binding data may be analyzed using the non-linear least-squares curve-fitting programs Prism (GraphPad Software Inc) or XLfit (ID Business Solutions Ltd).

[1] = displacement of [125I] tyrosine-sauvagine from membranes of cells stably transfected with human CRF receptors, less than 0.10 μM (i.e., 100 nM), read-out: Ki (CRF receptor binding affinity)

| SMILES | Ki [1] | Ki |
| --- | --- | --- |
| Cc1cc(N[C@H](CC(C)C)c2nc(C)no2)n2nc(C)c(-c3cnc(N(C)C)cc3C)c2n1 [Example 11-18, [3-(6-Dimethylamino-4-methyl-pyridin-3-yl)-2,5-dimethyl-pyrazolo[1,5-a]pyrimidin-7-yl]-[3-methyl-(R)-1-(3-methyl-[1,2,4]oxadiazol-5-yl)-butyl]-amine] | < 100 nM | – |
| CCC[C@H](Nc1cc(C)nc2c(-c3ccc(OC)cc3C)c(C)nn12)c1nc(C)no1 [Example 13-1, [3-(4-Methoxy-2-methyl-phenyl)-2,5-dimethyl-pyrazolo[1,5-a]pyrimidin-7-yl]-[(S)-1-(3-methyl-[1,2,4]oxadiazol-5-yl)-butyl]-amine] | < 100 nM | – |
| COCCN(Cc1nc(C)no1)c1cc(C)nc2c(-c3ccc(OC)cc3OC)c(C)nn12 [Example 15-1, [3-(2,4-Dimethoxy-phenyl)-2,5-dimethyl-pyrazolo[1,5-a]pyrimidin-7-yl]-(2-methoxy-ethyl)-(3-methyl-[1,2,4]oxadiazol-5-ylmethyl)-amine] | < 100 nM | – |
| COc1ccc(-c2c(C)nn3c(N[C@H](C)Cc4nc(C(F)(F)F)no4)cc(C)nc23)c(Cl)c1 [Example 13-6, [3-(2-Chloro-4-methoxy-phenyl)-2,5-dimethyl-pyrazolo[1,5-a]pyrimidin-7-yl]-[(R)-1-methyl-2-(3-trifluoromethyl-[1,2,4]oxadiazol-5-yl)-ethyl]-amine] | < 100 nM | – |
| COc1ccc(-c2c(C)nn3c(NC(Cc4nc(C)no4)C(F)(F)F)cc(C)nc23)c(C)c1 (stereo not drawn) [Example 12-3, [3-(4-Methoxy-2-methyl-phenyl)-2,5-dimethyl-pyrazolo[1,5-a]pyrimidin-7-yl]-[2,2,2-trifluoro-1-(3-methyl-[1,2,4]oxadiazol-5-ylmethyl)-ethyl]-amine] | < 100 nM | – |
| COc1ccc(-c2c(C)nn3c(N[C@H](C)Cc4nc(C(F)(F)F)no4)cc(C)nc23)c(C)c1 [Example 13-5, [3-(4-Methoxy-2-methyl-phenyl)-2,5-dimethyl-pyrazolo[1,5-a]pyrimidin-7-yl]-[(R)-1-methyl-2-(3-trifluoromethyl-[1,2,4]oxadiazol-5-yl)-ethyl]-amine] | < 100 nM | – |
| CC[C@H](Nc1cc(C)nc2c(-c3ccc(OC)cc3Cl)c(C)nn12)c1nc(C)no1 [Example 14-4, [3-(2-Chloro-4-methoxy-phenyl)-2,5-dimethyl-pyrazolo[1,5-a]pyrimidin-7-yl]-[(S)-1-(3-methyl-[1,2,4]oxadiazol-5-yl)-propyl]-amine] | < 100 nM | – |
| COc1ccc(-c2c(C)nn3c(N[C@H](C)Cc4nc(C)no4)cc(C)nc23)c(C)c1 [Example 11-10, [3-(4-Methoxy-2-methyl-phenyl)-2,5-dimethyl-pyrazolo[1,5-a]pyrimidin-7-yl]-[(R)-1-methyl-2-(3-methyl-[1,2,4]oxadiazol-5-yl)-ethyl]-amine] | – | < 100 nM |
| COc1ccc(-c2c(C)nn3c(N[C@H](C)Cc4noc(C(F)(F)F)n4)cc(C)nc23)c(C)c1 [Example 18-2, [3-(4-Methoxy-2-methyl-phenyl)-2,5-dimethyl-pyrazolo[1,5-a]pyrimidin-7-yl]-[(R)-1-methyl-2-(5-trifluoromethyl-[1,2,4]oxadiazol-3-yl)-ethyl]-amine] | < 100 nM | – |
| COc1ccc(-c2c(C)nn3c(N[C@@H](Cc4nc(C)no4)C(F)(F)F)cc(C)nc23)c(Cl)c1 [Example 13-4, [3-(2-Chloro-4-methoxy-phenyl)-2,5-dimethyl-pyrazolo[1,5-a]pyrimidin-7-yl]-[2,2,2-trifluoro-(S)-1-(3-methyl-[1,2,4]oxadiazol-5-ylmethyl)-ethyl]-amine] | < 100 nM | – |
| CCC(Cc1nc(C)no1)Nc1cc(C)nc2c(-c3ccc(OC)cc3OC)c(C)nn12 (stereo not drawn) [Example 12-11, [3-(2,4-Dimethoxy-phenyl)-2,5-dimethyl-pyrazolo[1,5-a]pyrimidin-7-yl]-[1-(3-methyl-[1,2,4]oxadiazol-5-ylmethyl)-propyl]-amine] | < 100 nM | – |
| CCCC(Nc1cc(C)nc2c(-c3ccc(OC)cc3C)c(C)nn12)c1nc(C)no1 (stereo not drawn) [Example 11-5, [3-(4-Methoxy-2-methyl-phenyl)-2,5-dimethyl-pyrazolo[1,5-a]pyrimidin-7-yl]-[1-(3-methyl-[1,2,4]oxadiazol-5-yl)-butyl]-amine] | < 100 nM | – |
| CCC(Cc1nc(C)no1)Nc1cc(C)nc2c(-c3ccc(OC)cc3C)c(C)nn12 (stereo not drawn) [Example 12-9, [3-(4-Methoxy-2-methyl-phenyl)-2,5-dimethyl-pyrazolo[1,5-a]pyrimidin-7-yl]-[1-(3-methyl-[1,2,4]oxadiazol-5-ylmethyl)-propyl]-amine] | < 100 nM | – |
| COc1ccc(-c2c(C)nn3c(N[C@@H](Cc4nc(C(F)(F)F)no4)C(F)(F)F)cc(C)nc23)c(OC)c1 [Example 13-9, [3-(2,4-Dimethoxy-phenyl)-2,5-dimethyl-pyrazolo[1,5-a]pyrimidin-7-yl]-[2,2,2-trifluoro-(S)-1-(3-trifluoromethyl-[1,2,4]oxadiazol-5-ylmethyl)-ethyl]-amine] | < 100 nM | – |
| CC[C@H](Cc1noc(C)n1)Nc1cc(C)nc2c(-c3ccc(OC)cc3C)c(C)nn12 [Example 17-3, [3-(4-Methoxy-2-methyl-phenyl)-2,5-dimethyl-pyrazolo[1,5-a]pyrimidin-7-yl]-[(R)-1-(5-methyl-[1,2,4]oxadiazol-3-ylmethyl)-propyl]-amine] | < 100 nM | – |
| COc1ccc(-c2c(C)nn3c(NC(C)Cc4nc(C5CC5)no4)cc(C)nc23)c(C)c1 (stereo not drawn) [Example 12-4, [2-(3-Cyclopropyl-[1,2,4]oxadiazol-5-yl)-1-methyl-ethyl]-[3-(4-methoxy-2-methyl-phenyl)-2,5-dimethyl-pyrazolo[1,5-a]pyrimidin-7-yl]-amine] | < 100 nM | – |
| COc1ccc(-c2c(C)nn3c(N4CCC[C@H]4Cc4nc(C)no4)cc(C)nc23)c(C)c1 [Example 14-3, 3-(4-Methoxy-2-methyl-phenyl)-2,5-dimethyl-7-[(S)-2-(3-methyl-[1,2,4]oxadiazol-5-ylmethyl)-pyrrolidin-1-yl]-pyrazolo[1,5-a]pyrimidine] | < 100 nM | – |
| CC[C@@H](Cc1noc(C)n1)Nc1cc(C)nc2c(-c3ccc(OC)cc3C)c(C)nn12 [Example 17-2, [3-(4-Methoxy-2-methyl-phenyl)-2,5-dimethyl-pyrazolo[1,5-a]pyrimidin-7-yl]-[(S)-1-(5-methyl-[1,2,4]oxadiazol-3-ylmethyl)-propyl]-amine] | < 100 nM | – |
| COc1ccc(-c2c(C)nn3c(NC(CC(C)C)c4nc(C)no4)cc(C)nc23)c(OC)c1 (stereo not drawn) [Example 11-23, [3-(2,4-Dimethoxy-phenyl)-2,5-dimethyl-pyrazolo[1,5-a]pyrimidin-7-yl]-[3-methyl-1-(3-methyl-[1,2,4]oxadiazol-5-yl)-butyl]-amine] | < 100 nM | – |
| CCC(Nc1cc(C)nc2c(-c3ccc(OC)cc3C)c(C)nn12)c1nc(C(F)(F)F)no1 (stereo not drawn) [Example 11-11, [3-(4-Methoxy-2-methyl-phenyl)-2,5-dimethyl-pyrazolo[1,5-a]pyrimidin-7-yl]-[1-(3-trifluoromethyl-[1,2,4]oxadiazol-5-yl)-propyl]-amine] | < 100 nM | – |
| CCC(Nc1cc(C)nc2c(-c3ccc(OC)cc3C)c(C)nn12)c1nnco1 (stereo not drawn) [Example 21-1, [3-(4-Methoxy-2-methyl-phenyl)-2,5-dimethyl-pyrazolo[1,5-a]pyrimidin-7-yl]-(1-[1,3,4]oxadiazol-2-yl-propyl)-amine] | < 100 nM | – |
